Results from patent publication US11510928B2, “Use of mirtazapine in the treatment of inflammatory disorders, autoimmune disease and PBC” (UTI Limited Partnership, priority 2017, dated 2022).
Where “and” joins values, the source holds several entries; their conditions need not be identical. Equal entries are not always repeated.

Key:
PBC patients [1] = assay: THIN database cohort study of PBC patients: decompensation, liver transplant and mortality free survival by drug usage; assay type: in vivo, human
Source text: We conducted a cohort study using The Health Improvement Network (THIN). THIN is one of the largest medical databases in the UK^8, consisting of prospectively gathered electronic medical records from over 11.1 million patients^8. […] Data from participant general practitioners across the UK is exported to the THIN administrators and database, which is updated every 3 months^11. The THIN database records demographic data and clinical events using Read codes, prescription medications, and laboratory values^12.
We identified patients with PBC Read code “J6160” from April 1974 until May 2007. This cohort was followed until May 2012. We excluded patients having overlap syndrome with autoimmune hepatitis or primary sclerosing cholangitis. The first code of PBC identified in the THIN database was considered the index (ie. diagnosis) date. FIG. 10 provides a flow diagram illustrating the selection of the study population. The primary outcome was the first occurrence of one of the three events following the diagnosis of PBC: (1) decompensation of cirrhosis (ascites, spontaneous bacterial peritonitis, hepatic encephalopathy, hepatorenal syndrome, variceal bleeding, jaundice, or hepatocellular carcinoma); (2) liver transplantation; or (3) death.
Read codes were used to identify patients with chronic depression disorder. Chronic depression was defined as follows: (1) never diagnosed with chronic depression; (2) past depression diagnosis prior to 90 days from PBC diagnosis; and (3) current depression diagnosis if a diagnosis was made within 90 days before or after a PBC diagnosis. Using THIN database therapy files, we assessed the impact of anti-depressant medications on outcomes of PBC patients (mortality, decompensation, and liver transplant).
For each anti-depressant medication, use was defined as follows: (1) never used the medication; (2) past use as defined as a previous code for medication use prior to 90 days of PBC diagnosis; and (3) current medication user if the medication code was identified within 90 days before or after a PBC diagnosis. We assessed the effect of each anti-depressant medication on study outcomes separately. Antidepressants were classified as typical or atypical and stratified accordingly. Atypical antidepressants include: Agomelatine, Bupropion and Mirtazapine. While typical antidepressants include the following groups: (a) Selective Serotonin Reuptake Inhibitors (SSRI): Citalopram, Escitalopram, Fluoxetine, Fluvoxamine, Paroxetine and Sertraline; (b) […] (SNRI): Desvenlafaxine, Duloxetine, Minacipran and Venlafaxine; (c) Serotonin modulators: Nefazodone, Trazodone and Vilazodone; (d) Tricyclics and tetracyclics: Amitriptyline, Amoxapine, Clomipramine, Desipramine, Doxepin, Imipramine, Maprotiline, Nortriptyline and Protriptyline, Trimiprramine; (e) Monamine oxidase inhibitors: Isocarboxazid, Phenelzine, Selegiline and Tranylcypromine.
We assessed age at diagnosis of PBC, sex, and the presence of coexisting liver disease (ie. chronic hepatitis either viral, alcoholic, or fatty liver disease; yes/no). Smoking status was classified (current, former, never smoked, or unknown status) at the time of PBC diagnosis, alcohol consumption was classified (current, former, never consumed alcohol, or unknown status) at PBC diagnosis. Ursodeoxycholic acid (UDCA) usage (ever/never recorded) was also determined.
In our primary analysis, we assessed demographic, clinical, and medication variables in the PBC cohort according to depression status. Where appropriate, we used the Fisher Exact test or Chi-Square test for categorical data, and the Kruskal-Wallis or Student's t-test for continuous data. Univariate analysis using Log Rank test and multivariate Cox Proportional Regression models were used to assess the impact of depression or anti-depressant medications on PBC outcomes as defined by death, decompensated cirrhosis, or liver transplant. […]

PBC patients [2] = settings: human, in vivo; listed as UDCA; cited from earlier work
[3] = URSO usage (ever/never recorded)

CNCCC(Oc1ccc(C(F)(F)F)cc1)c1ccccc1 (stereo not drawn) [Fluoxetine]
Univariate HR, 10-year decompensation, liver transplant and mortality free survival (PBC patients [1]; current usage vs none): 0.58 | Univariate HR, 10-year decompensation, liver transplant and mortality free survival (PBC patients [1]; usage prior to PBC diagnosis vs none): 0.83

C[C@H](CCC(=O)O)[C@H]1CC[C@H]2[C@@H]3[C@@H](O)C[C@@H]4C[C@H](O)CC[C@]4(C)[C@H]3CC[C@]12C [URSO, ursodeoxycholic acid]
Multivariate model-1 HR (PBC patients [1]; [3]): 1.00 | Multivariate model-2 HR (PBC patients [1]; [3]): 1.00 | Univariate HR, 10-year decompensation, liver transplant and mortality free survival (PBC patients [1]; [3]): 0.80 | Patients with PBC who do not fully respond to treatment (PBC patients [2]): 30% to 40% and 30-40%
